This data set can be described thus: Plasma free fraction by ultrafiltration. The conditions noted are these: Sprague-Dawley, rat, mean ± SEM, n = 5, read-out: parent free fraction in plasma. Format: in vitro ADME. On the procedure: kept on ice until analyzed. Radioactivity in whole blood and plasma, as well as homogenized tissue samples, was assessed using a well-type γ-counter using a 400– 1400 keV window (Perkin Elmer Wizzard2, USA). Plasma samples (400 μl) and tissue samples (500 μl) were processed by acetonitrile denaturation (1:1.4 v/v) and analyzed by HPLC (Ultimate2000, ThermoFisher, UK) on a Luna C18(2) 10×250 mm, 10 μm column (Phenomenex, UK) with acetonitrile/water 70/30 and flow rate of 4 mL/min to estimate the parent fraction. The plasma fp was determined using ultrafiltration units (Centrifree® 30K, […]
Simulation of Changes in 18F-LW223 BPND for varying blood flow scenarios Simulation work was carried out using a Matlab (MathWorks, USA) 2-tissue compartment code with Ordinary Differential Equation (ODE) solvers. Six different levels of K1 values (0.9, 0.7, 0.5, 0.3, 0.1 and 0.01 mL/min/cc) were tested with fixed k2 and vB=0.05. The following BPND values were simulated: 4, 10, 16 and 20; with k3 modified and k4 fixed. All micro parameters used in the simulations are shown in Supplementa l Table 5. The input function used was an average of the blood curve s taken from healthy animals using the SwissTrace blood sampler (Supplemental Data File 1). The plasma to whole blood ratio used was 1.84 and the AIF was metabolite corrected using a population based curve as in the experimental data. […]

Take `CC[C@@H](C)N(C)C(=O)c1nc2ccccc2c(-c2ccccc2)c1C[18F]` [^18F-LW223]: the fraction unbound worked out at 0.385.

Source of the values: PMC8049364, “Quantification of Macrophage-Driven Inflammation During Myocardial Infarction with ^18F-LW223, a Novel TSPO Radiotracer with Binding Independent of the rs6971 Human Polymorphism” (Journal of Nuclear Medicine, 2021).
